The record followed here is PubChem BioAssay (NCI).

The structures appear in SMILES notation.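 1) Cells in 96-well plates. 2) Compound, 48 h, 5 concentrations. 3) Linear interpolation between surrounding doses. 4) Unreached endpoint = highest concentration. At the GI50, growth is halved. TGI: total growth inhibition.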

Holding throughout (test): inhibition of tumour cell growth, NCI panel, 48 h
Experiment [1] deals with MDA-N.
In experiment [2] the test system is DLD-1 colon.
Experiment [3] has as its system HOP-18 NSCLC.
Experiment [4] relates to KM20L2 colon.
In experiment [5] the test system is RXF-631 renal.
Experiment [6] relates to SNB-78 CNS.
The test system of experiment [7] is XF 498 CNS.

For `COc1cc(C2=N/C(=C/c3cccs3)C(=O)O2)cc(OC)c1OC`, the TGI in experiment [1] is over 100 µM.

As to `CSc1snc2sc3c(Cl)nnnc3c12`, the TGI is 22.7 µM in experiment [2]; 33.9 µM in experiment [3]; 30.9 µM in experiment [4]; 38.4 µM in experiment [5]; 38.1 µM in experiment [6]; 27.4 µM in experiment [7].

Compound `CN(C)CCNC(=O)Cn1cnc2cccc([N+](=O)[O-])c2c1=O` came in with a TGI in experiment [1] of over 100 µM.

Regarding `COc1ccc2oc(C(=O)O)c3c2c1CCC3CCC(=O)O` (configuration not stated), the TGI in experiment [2], in experiment [5], in experiment [6] and in experiment [7] was over 100 µM throughout.

In the case of `COc1ccc(/C=C2\CCC(CCN(C)C)(C3=CCCC3)C2=O)cc1Br` (configuration not stated), the TGI was 16.4 µM in experiment [2]; 25.2 µM in experiment [3]; 3.56 µM in experiment [4]; 31.1 µM in experiment [5]; 30.4 µM in experiment [6]; 8.72 µM in experiment [7].

Turning to `C=C1CC2CC(O)CC(C1)C2` (configuration not stated), the TGI in experiment [2], in experiment [3], in experiment [4], in experiment [6] and in experiment [7] was over 100 µM in each case.

The compound `O=C1OC(=O)C2CCCC3CCCC1C32` (configuration not stated) showed a TGI in experiment [1] of over 100 µM.

With `Cc1ccc(C(=O)/C=C/c2cccc([N+](=O)[O-])c2)cc1`, the TGI in experiment [2] was over 85.8 µM; in experiment [3], over 100 µM; in experiment [4], over 100 µM; in experiment [5] it was over 100 µM; in experiment [6], over 100 µM.

Regarding `CCCCNC(=O)C1C2CCC(O2)C1C(=O)O` (configuration not stated), the TGI in experiment [2] was 49.4 µM; in experiment [3], 90.9 µM; in experiment [4], 27.4 µM; in experiment [5] it was over 100 µM; in experiment [6], over 100 µM; in experiment [7], 19.2 µM.

For the compound `CC(=O)O[C@@]1(C)[C@@H](C)C(=O)O[C@@H]2CCN3CC=C(COC(=O)[C@]1(C)O)[C@H]23`, the TGI in experiment [2] and in experiment [4] was over 100 µM throughout.

For `O=C(N/N=C1\C(=O)N(c2nccs2)C(=O)C(=O)C1c1nc2ccccc2s1)c1ccccc1O` (configuration not stated), the TGI in experiment [2] is over 100 µM; in experiment [3], 77.4 µM; in experiment [4], over 100 µM; in experiment [6] it was over 100 µM; in experiment [7] it was over 100 µM.

As to `C/C=C(\CCOS(=O)(=O)c1ccc(C)cc1)[Si](C)(C)C`, the TGI in experiment [2], in experiment [3], in experiment [4], in experiment [5], in experiment [6] and in experiment [7] was over 100 µM in each case.

As to `CSC(=S)OC1CC(n2cnc3c(NC(=O)c4ccccc4)ncnc32)OC1CO[Si](C)(C)C(C)(C)C` (configuration not stated), the TGI in experiment [1] is 47.4 µM.

In experiment [1], `CCCCCCCCCCCCCCCCCCOCC(CCP(=O)(CP(=O)(O)O)Oc1ccccc1)OCCCCCCCCCCCCCCCCCC` (configuration not stated) displayed a TGI of over 100 µM.

With `CCc1cc(CCC(=O)Nc2ccccc2[N+](=O)[O-])[nH]c(=S)n1`, the TGI in experiment [2], in experiment [3], in experiment [4], in experiment [5] and in experiment [6] was over 100 µM in each case.

In the case of `Cc1cccc2c1CCC21OC(=O)c2c1ccc1ccccc21` (configuration not stated), the TGI was over 100 µM in experiment [2], over 100 µM in experiment [3], over 100 µM in experiment [4] and 50.2 µM in experiment [5].

Consider `Nc1n[n+](-c2ccccc2)no1`, for which the TGI in experiment [2], in experiment [4] and in experiment [6] was over 100 µM throughout.

For `CC1=C(/C=C/C(C)=C/C=C/C(C)=C/C(=O)O)C(C)(C)CCC1`, the TGI in experiment [2], in experiment [3], in experiment [4], in experiment [1] and in experiment [7] was over 100 µM each time.

For `O=C(CC(=O)c1cccc2ccccc12)C(=O)NC1C2CC3CC(C2)CC1C3` (configuration not stated), the TGI in experiment [2], in experiment [3], in experiment [4], in experiment [5], in experiment [6] and in experiment [7] was over 100 µM in each case.

Take `CC(C(N)C(=O)NC(C(=O)O)C1OC(n2ccc(=O)[nH]c2=O)C(O)C1O)C(O)c1ccc(O)cn1` (configuration not stated): the TGI in experiment [1] was over 100 µM.

As for `C=C1C(OC(=O)/C=C/c2ccccc2)CC(OC(C)=O)C2(C)C1CC1CC(OC(C)=O)C(C)=C(C(OC(C)=O)C2OC(C)=O)C1(C)C` (configuration not stated), the TGI in experiment [3], in experiment [4], in experiment [5] and in experiment [6] was over 100 µM in each case.

As for `O=C(O/N=C1/CCC/C1=C\c1ccccc1)c1ccc(Cl)c(Cl)c1`, the TGI in experiment [2], in experiment [3], in experiment [4], in experiment [5] and in experiment [6] was over 100 µM each time.

Regarding `O=C1C2C(C(=O)N1c1ccccc1)C1([N+](=O)[O-])C=C3c4ccccc4N(C(=O)c4ccccc4)C32C2C(=O)N(c3ccccc3)C(=O)C21` (configuration not stated), the TGI in experiment [2], in experiment [5], in experiment [6] and in experiment [7] was over 100 µM throughout.

In experiment [1], `O=C1C2CCN(CC2)C1(CO)CO` returned a TGI of over 100 µM.

Consider `CC(C)(C)c1ccc(OCCOCCOc2ccc(C(C)(C)C)cc2S(=O)(=O)Nc2ccc([N+](=O)[O-])cc2)c(S(=O)(=O)Nc2ccc([N+](=O)[O-])cc2)c1`, for which the TGI in experiment [2], in experiment [3], in experiment [5] and in experiment [6] was over 100 µM in each case.

`CN(Cc1cc(Br)cc(Br)c1O)Cc1c(O)ccc2ccccc12`: the TGI in experiment [1] was 39.9 µM.

As for `NC1=NN(c2ccccc2)C(=O)C1C(=O)C(=O)Nc1nccs1` (configuration not stated), the TGI in experiment [2], in experiment [3], in experiment [4], in experiment [5] and in experiment [6] was over 100 µM each time.

Turning to `COc1ccc2c3c(c(C(=O)c4ccccc4)oc13)CCC2`, the TGI in experiment [2], in experiment [3], in experiment [4], in experiment [5], in experiment [6] and in experiment [7] was over 100 µM in each case.

Regarding `N#CC1(C#N)C2C=CC(c3coc4cccc2c34)C1(C#N)C#N` (configuration not stated), the TGI in experiment [2] worked out at 4.17 µM; in experiment [3] it was 30.4 µM; in experiment [4], 35.5 µM; in experiment [6], 43.1 µM; in experiment [7], 15.3 µM.

Turning to `C/C(=N\NC(=S)SCc1ccccc1)c1ccccn1`, in experiment [1], the TGI was 15.3 µM.

Regarding `O=C(CCn1[nH]c(=O)c(Cl)c(Cl)c1=O)NNC(=O)C[n+]1ccccc1`, the TGI in experiment [2], in experiment [3], in experiment [4], in experiment [5] and in experiment [7] was over 100 µM in each case.

On to `Cc1ccc(NS(=O)(=O)c2cccc(C#N)c2)c2[nH]cc(C#N)c12`, for which, in experiment [1], the GI50 was 4.1 µM and the TGI is over 91.6 µM.

Regarding `CCOC(=O)c1cnc2c(ccc3ncccc32)c1NCCCN(CC)CC`, the TGI in experiment [2], in experiment [3], in experiment [4], in experiment [6] and in experiment [7] was over 100 µM in each case.
